# Values joined by “and” are separate entries in the source; they are usually repeats but may differ in a detail not shown here. Equal entries are not always repeated. Where two headings read alike, the source gives them in different places.
# Experiments:
# UGTs = settings: ref unpublished results; cited from earlier work
# tumour growth = settings: in combination with anti‐PD‐L1, preclinical models; cited from earlier work
# [1] = Safety assessments in Parts 1 and 2; assay type: in vivo, human; settings: both parts, healthy volunteers
# [2] = Stability of navoximod in human plasma; assay type: in vitro ADME; settings: five freeze–thaw cycles; at least 110 days at −10°C to −30°C and −60°C to −80°C; 24 h at room temperature
# Part 2 mass balance = assay type: in vivo, human
# [3] = assay type: in vivo, human
# [4] = cited from earlier work
# [5] = Solubility in water and other physiological relevant media; assay type: physicochemical
# [6] = assay type: in vivo, human; remark: listed apart in the source
# [7] = Part 2, oral 200 mg/600 μCi [14C]-navoximod
smiles,measurement,setting,value
O[C@H](C[C@H]1c2c(F)cccc2-c2cncn21)[C@H]1CC[C@H](O)CC1 [navoximod],major UGTs responsible for navoximod metabolism,UGTs,UGT1A9 and 2B7
same,effect on tumour growth,tumour growth,inhibits tumour growth compared to either treatment alone
same,tolerability,[1]; all IV (5 mg) and oral (200 mg) doses,generally well tolerated
same,severity of adverse events,[1]; all IV and oral doses,mild
same,stability in human plasma,[2],stable
same,recovery of total radioactivity in urine,"Part 2 mass balance; % of administered dose, mean (± SD), oral 200 mg/600 μCi [14C]-navoximod",80.4%
same,"navoximod as share of plasma total radioactivity, geometric mean AUC0‐∞ ratio",Part 2 mass balance; [7],4.21%
same,"navoximod as share of plasma total radioactivity, geometric mean C max ratio",Part 2 mass balance; [7],10.6%
same,geometric mean whole blood to plasma AUC0‐∞ ratio for total radioactivity,"Part 2 mass balance; Part 2, total radioactivity (parent and metabolites)",0.965
same,Fh,Part 2 mass balance; assuming Fg = 1,approximately 0.66
same,extrahepatic clearance,Part 2 mass balance; estimated,31.2 L/h
same,total radioactivity recovered in excreta within the first 72 h,"Part 2 mass balance; first 72 h, oral 200 mg/600 μCi [14C]-navoximod",85.0%
same,Fh * Fg,Part 2 mass balance; from F and Fa,0.66
same,AUC(0-inf),"Part 2 mass balance; human, plasma, po, 200 mg",1.54 µg·h/mL
same,AUC(0-t),"Part 2 mass balance; human, plasma, po, 200 mg",1.51 µg·h/mL
same,Cmax,"Part 2 mass balance; human, plasma, po, 200 mg",0.464 µg/mL
same,Vd/F,"Part 2 mass balance; human, plasma, po, 200 mg",1680 L
same,half-life,"Part 2 mass balance; human, plasma, po, 200 mg",9.41 h
same,CL renal,"Part 2 mass balance; human, urine and plasma, oral, 200 mg",20.3 mL/min
same,hepatic clearance (CLhep = [1 − Fh] * Qh),Part 2 mass balance; in vivo,29.6 L/h
same,fraction of metabolism (fm),Part 2 mass balance; oral 200 mg,0.98
same,hepatic first pass extraction,Part 2 mass balance; oral 200 mg,~ 34%
same,fraction of the dose absorbed (Fa),"Part 2 mass balance; sum of radioactivity in urine and metabolites in faeces, as fraction",0.841
same,AUC(0-t),"[3]; human, plasma, oral, 200 mg",4.4 µM·h
same,Total (urine + feces) % of dose,"[3]; mean of eight subjects, oral 200 mg/600 μCi [14C]-navoximod",5.45 % of dose
same,Plasma % of TRA (share of total drug-derived exposure),"[3]; pooled 0–48 h plasma, n = 8, adjusted with extraction recovery, oral 200 mg/600 μCi [14C]-navoximod",7.00%
same,Feces % of dose,"[3]; pooled faeces, mean of eight subjects, oral 200 mg/600 μCi [14C]-navoximod",3.79 % of dose
same,Urine % of dose,"[3]; pooled urine, mean of eight subjects, oral 200 mg/600 μCi [14C]-navoximod",1.66 % of dose
same,mean accumulation index,[4]; BID dosing,approximately 1.7
same,half‐life,"[4]; clinical studies, monotherapy or with atezolizumab",approximately 12 hours
same,dose proportionality of exposure,[4]; dose range of 50–1000 mg,dose‐proportional increases in exposure
same,tolerability of single and twice daily oral doses,"[4]; monotherapy, up to 1000 mg, cancer patients",well tolerated
same,solubility,[5],200 mg/mL
same,total IV clearance relative to blood flow,[6]; IV 5 mg,~ 71 % of blood flow
same,CL/F (apparent oral clearance),"[6]; Part 1, healthy volunteers, oral 200 mg tablet, fasted, n = 16, geometric mean (geometric CV%)",112 L/h and 112 (31.4) L/h
same,AUC(0-inf),"[6]; human, plasma, iv, 5 mg",0.0806 µg·h/mL
same,AUC(0-t),"[6]; human, plasma, iv, 5 mg",0.0791 µg·h/mL
same,Cmax,"[6]; human, plasma, iv, 5 mg",0.114 µg/mL
same,Tmax,"[6]; human, plasma, iv, 5 mg",5 min
same,Vd,"[6]; human, plasma, iv, 5 mg",1120 L
same,clearance,"[6]; human, plasma, iv, 5 mg",1030 mL/min
same,half-life,"[6]; human, plasma, iv, 5 mg",12.6 h
same,bioavailability,"[6]; human, plasma, oral, 200 mg",55.5%
same,AUC(0-inf),"[6]; human, plasma, po, 200 mg",1.79 µg·h/mL
same,AUC(0-t),"[6]; human, plasma, po, 200 mg",1.77 µg·h/mL
same,Cmax,"[6]; human, plasma, po, 200 mg",0.683 µg/mL
same,Vd/F,"[6]; human, plasma, po, 200 mg",1780 L
same,half-life,"[6]; human, plasma, po, 200 mg",11 h
